How the values were obtained:
[1] = Metabolite radioprofiling of plasma, urine and feces, mouse; format: in vivo; details: mouse (5 mg/kg) oral 14C-talarozole; for Urine % Dose as the component: urine 0-24 h
Method: (§1) Male and female CD-1 mice (19-29 g, n=3/sex/timepoint for blood sampling, n=3/sex for mass balance), Sprague Dawley rats (0.205-0.237 kg, n=3/sex/timepoint for blood sampling, n=3/sex for mass balance) and beagle dogs (7-12 kg, n=3) were given a single oral dose of ^14C-labeled talarozole in 20% hydroxyl propyl B-cyclodextrin at 5 mg/kg. Healthy human male volunteers (76.6-107.9 kg, n=5) were dosed with a single oral dose of 4 mg ^14C-labeled rambazole in ethanol. Blood samples were collected at selected timepoints after dosing and plasma was prepared. Urine and feces were collected for 2, 7 and 8 days. For the human study, up to 288 hours post-dose and semen samples were obtained 2 and 4 hours post-dose. Radioactivity in various matrices were measured by liquid scintillation counting (LSC). Select plasma, urine and fecal samples were subjected to metabolite radioprofiling and characterization, and in the human study, semen samples. Metabolite radioprofiling was accomplished using HPLC with fraction collection followed by solid scintillation counting (Packard TopCount—see representative HPLC run data below). Radioactivity peaks were integrated and the percent distribution of individual metabolites in each sample was determined. Metabolite characterization and identification were accomplished by LC/MS (Finnigan MAT LCQ in positive or negative ESI mode) in conjunction with an appropriate radioactive monitor (RAM). For all species, plasma, urine and fecal samples were pooled across animals and analyzed. Plasma was analyzed at several time-points out to 24 hours. Urine was analyzed over one time-interval (0-24 hours for mouse, 0-48 hours for rat, 0-72 hours for dog, and for in the human study, 0-12, 12-24, 24-48, 0-48 hours. Feces was analyzed over 2-3 time intervals (0-24 and 24-48 hours for mouse and rat; 0-24, 24-48, and 48-72 hours for male dogs; and 24-48, 48-72, and 72-96 hours for female dogs). In the human study, feces were analyzed for 0-48, 48-96, 96-144, 144-192, 192-288, 0-144, 144-288 and 0-288 hours. PK parameters for ^14C-labeled talarozole radioactivity was determined from the mean (mouse and rat) or individual (dog and human) plasma concentration versus time data. PK parameter values were determined by non-compartmental methods using WinNonlin™. • HPLC data for separations described in Example 1: • LC system: Waters 2695 Separations Module • Analytic column: C18 column, 4.6×150 mm, 3 μm • Flow rate: 1.0 mL/min • Mobile phase A: 2% HCOOH in H2O (pH 3.2) • Mobile phase B: CH3CN • Gradient: […]

[2] = Metabolite radioprofiling of plasma, urine and feces, rat; format: in vivo; details: rat (5 mg/kg) oral 14C-talarozole; for Urine % Dose as the component: urine 0-48 h
Method: as §1

[3] = Metabolite radioprofiling of plasma, urine and feces, dog; format: in vivo; details: dog (5 mg/kg) oral 14C-talarozole; for Urine % Dose as the component: urine 0-72 h
Method: as §1

[4] = tested on: vaginal keratinization induced by estrogenic treatment; assay: Inhibition of vaginal keratinization induced by estrogenic treatment in ovariectomized rats; format: in vivo, rat; details: for ED50-value for complete suppression (keratinization score=0): ovariectomized rats with estrogenic treatment, M4 oral during 3 days
Source text: Effects on Epithelial Differentiation in Rat Vagina: Inhibition of Vaginal Keratinization Induced by Estrogenic Treatment in Ovariectomized Rats by Oral Administration of Talarozole Metabolite M4
This animal model is based on the observation that retinoic acid (RA) suppresses the keratinization process in the stratified squamous epithelium of the vagina induced by estrogenic treatment in ovariectomized rats (Sietsema & DeLuca, 1982; Geiger & Weiser, 1989).

IP-10 = assay: Suppression of IP-10 production by IFNγ-activated human epidermal keratinocytes; format: cell-based
Source text: Talarozole Metabolites for Suppression of IP-10 Production by IFNγ-Activated Human Epidermal Keratinocytes
IP-10, a member of the CXC subfamily of chemokines, attracts T-lymphocytes and natural killer cells. […] In particular, epidermal keratinocytes of psoriatic lesions express elevated levels of IP-10. Suppression of IP-10 expression by activated keratinocytes may represent a novel target for therapeutic intervention of inflammatory skin disorders.

[5] = Metabolite radioprofiling of plasma, urine, feces and semen, human; details: in vivo
Method: as §1

Compound	Plasma 0-24 h AUC (% Sample) ([1]; female) [%]	Plasma 0-24 h AUC of the radioactive component ([1]; female) [ng·h/g]	Plasma 0-24 h AUC (% Sample) ([1]; male) [%]	Plasma 0-24 h AUC of the radioactive component ([1]; male) [ng·h/g]	Plasma 0-24 h AUC (% Sample) ([2]; female) [%]	Plasma 0-24 h AUC of the radioactive component ([2]; female) [ng·h/g]	Plasma 0-24 h AUC (% Sample) ([2]; male) [%]	Plasma 0-24 h AUC of the radioactive component ([2]; male) [ng·h/g]	Feces % Dose as the component ([3]; female) [% Dose]	Urine % Dose as the component ([3]; female) [% Dose]	Feces % Dose as the component ([3]; male) [% Dose]	Urine % Dose as the component ([3]; male) [% Dose]	ED50-value for complete suppression (keratinization score=0) [4] [mg/kg/day]	IP-10 expression (IP-10)	Feces % Dose as the component ([2]; female) [% Dose]	Urine % Dose as the component ([2]; female) [% Dose]	Feces % Dose as the component ([2]; male) [% Dose]	Urine % Dose as the component ([2]; male) [% Dose]	other results
CCC(CC)C(c1ccc(Nc2nc3ccc(OC4OC(C(=O)O)C(O)C(O)C4O)cc3s2)cc1)n1cncn1 (stereo not shown) [Metabolite M9]	18.27	1208.2	21.31	1937.3	12.06	1084.8	4.43	312.30	3.09	0.45	4.31	1.35	–	–	–	–	–	–	–
CCC(CC)C(c1ccc(Nc2nc3ccc(O)cc3s2)cc1)n1cncn1 (stereo not shown) [Metabolite M4]	7.44	492.2	4.43	402.45	3.68	331.07	7.01	493.84	17.01	0.01	19.88	0.04	1.2	down regulate dose-dependently	7.76	0.29	4.95	0.07	inhibition of vaginal keratinization ([4]; oral administration during 3 days, ovariectomized rats): inhibited vaginal keratinization induced by estrogenic treatment in ovariectomized rats in a dose-dependent manner; Feces % Dose as the component ([1]; female): 15.16 % Dose; Urine % Dose as the component ([1]; female): 0.01 % Dose; Feces % Dose as the component ([1]; male): 10.56 % Dose; Urine % Dose as the component ([1]; male): 0.02 % Dose; Plasma 0-24 h AUC (% Sample) ([3]; female): 34.33%; Plasma 0-24 h AUC of the radioactive component ([3]; female): 6257.6 ng·h/g; Plasma 0-24 h AUC (% Sample) ([3]; male): 18.37%; Plasma 0-24 h AUC of the radioactive component ([3]; male): 3132.4 ng·h/g; Plasma 0-24 h AUC of the radioactive component ([5]; human, po, 0.067 mg/kg): 58.74 ng·h/g; Semen (radioactive component in semen samples) [5]: minor radioactive components; Plasma 0-24 h AUC (% Sample), % of total plasma radioactivity ([5]; male, human, po, 0.067 mg/kg): 27.8%
CCC(CC)C(c1ccc(Nc2nc3ccc(OS(=O)(=O)O)cc3s2)cc1)n1cncn1 (stereo not shown) [Metabolite M16]	–	–	–	–	2.43	218.47	2.94	207.48	–	–	–	–	–	–	1.33	0.31	1.42	0.16	–
CCC(CC)[C@@H](c1ccc(Nc2nc3ccccc3s2)cc1)n1cncn1 [its enanantiomer]	–	–	–	–	–	–	–	–	–	–	–	–	–	down regulate dose-dependently	–	–	–	–	–
CC1=C(/C=C/C(C)=C/C=C/C(C)=C/C(=O)O)C(C)(C)CCC1 [RA, retinoic acid]	–	–	–	–	–	–	–	–	–	–	–	–	5.1	–	–	–	–	–	–
